The record followed here is a melting point compilation (Tetko et al.; mined from patent text by program, amines drawn as free bases though some values may be those of a salt).

Molecules are shown by their SMILES. Some results are limits rather than exact numbers.

Take `Fc1ccc2c(C3CCN(CCc4ccccc4)CC3)n[nH]c2c1`: the melting point lay in the range of 163 to 165 °C.

With `CCOC(=O)C(Cc1ccc(OCc2ccccc2)cc1)OS(C)(=O)=O` (stereo not drawn), the melting point fell in the range of 81 to 83 °C. The same measure for `CCN(CC)CC1CCCCN1CCCCN1c2ccccc2C(=O)Nc2cccnc21` (stereo not drawn): 112 °C; for `O=C(NCCO)c1cccc(-c2ccc3ccn(-c4ccc(Cl)cc4Cl)c3c2)c1`: 163 to 164 °C. To `COC(=O)CC(C#N)c1ccc(OC)c(OC2CCCC2)c1` (stereo not drawn) belongs 69 to 71 °C. To `N#CCN1CCC(=C2c3cc(F)ccc3CCn3ccnc32)CC1` belongs 198 °C; to `COc1ccc(N2CCOCC2)c2sc(-c3ncc[nH]3)nc12`, 228 to 230 °C. Consider `CCCn1c(=O)c(C(=O)OCC)c(O)c2cnc(-c3ccccc3)nc21`, for which the melting point lay in the range of 164 to 167 °C.

On to `COc1cc(Nc2c(C#N)cnc3cc(-c4ccc(C(N)=O)cc4)sc23)c(Cl)cc1Cl`, for which the melting point was over 300 °C. The same measure for `CCC1C(=O)C2C3CCC(C(C)CCC(=O)O)C3(C)CCC2C2(C)CCC(O)CC12` (stereo not drawn): 185 to 188 °C; for `CCCc1nc2cccc(C(=S)OC)c2n1Cc1ccc(-c2ccccc2C#N)cc1`: 107 to 108 °C; for `COc1ccc(N2CCN(c3c(C)c(C)c4c(c3C)C(=CCc3ccccc3)C(C)(C)O4)CC2)cc1`: 166 to 167 °C. To `CN(CCOc1ccc(CCO)cc1)c1nc2ccccc2o1` belongs 95 to 97 °C; to `CC(=Cc1c(Cl)cc(N(C)C)cc1Cl)[N+](=O)[O-]`, 105 to 110 °C.

Compound `Cc1cccc(C)c1NCC(=O)N1CCCO1` registered a melting point of 82 to 83 °C. The same measure for `CCCCCCCCCCCCCCCCCCc1c(C)[nH]c(C(=O)OCC)c1C`: 76 to 78 °C; for `O=C(Nc1ccc(C(=O)N2CCc3cn[nH]c3-c3sccc32)cc1)c1ccccc1-c1ccccc1`: 280 to 284 °C; for `CCCCc1nc2c(N)nc(C)c(C)c2n1CCOc1ccccc1`: 130 to 132 °C. The same measure for `COC(=O)c1cc(Cl)cc2c1OCCN2C`: 91 to 92 °C; for `O=C1COC(CCOC(=O)c2ccccc2)(c2ccc(F)c(F)c2)CN1` (stereo not drawn): 92 °C; for `COc1cc(C#N)ccc1C(Br)C(Br)C(=O)c1cccc(C#N)c1` (stereo not drawn): 72 to 75 °C.

`COc1cc2c(Nc3ccc4cn[nH]c4c3)c(C#N)cnc2cc1OCCN1CCSCC1` gave a melting point of 213 to 215 °C. The same measure for `CCOC(=O)C(C)(C)n1c(=O)[nH]c2ccsc2c1=O`: 156 to 157 °C; for `Cc1nc(-c2ccc(O)c(C)c2O)no1`: 224 to 225 °C.

`CN(N=Cc1cnc[nH]1)C(=O)c1[nH]c2ccccc2c1-c1ccccc1`: the melting point lay in the range of 248 to 250 °C. To `CC(=O)c1cnc2c(c1)oc(=O)n2CCc1ccncc1` belongs 148 to 150 °C; to `O=C(CCc1nc(-c2ccccn2)no1)NC1CCN(Cc2ccc(Cl)c(Cl)c2)CC1`, 155 °C. The same measure for `Cc1nn(-c2cc(I)c(Cl)cc2F)c(=O)n1C(F)F`: 125 to 127 °C; for `COc1ccc(-c2ccc(OC)cc2[N+](=O)[O-])c([N+](=O)[O-])c1`: 134 to 137 °C; for `CCOC(=O)CCCCCOc1ccc(-c2ccccc2)c(-c2ccccc2)n1`: 85 to 87 °C. To `COc1cc2c(cc1OC)C(CCCl)OCC2` (stereo not drawn) belongs 161 to 163 °C.

Compound `CCOC(=O)CC[C@H](NC(=O)OCc1ccccc1)C(=O)O` yielded a melting point of 82 to 84 °C.

`COC(=O)C(C)(C)CCCOc1cc(C)c(NC(=O)C(C)(C)CCCOc2cc(C)ccc2C)cc1C` returned a melting point of 60 to 62 °C.

`Nc1ncc(-c2cccc(OCc3ccccc3)c2)cc1C(=O)NC1CC1` yielded a melting point of 177 to 178 °C. The compound `Cc1ccc(C)n1-c1ccc(C(=O)N(C)C)cc1` gave a melting point of 102 to 104 °C. To `CC(C)C[C@H](NC(=O)C1(N)CCCCC1)C(=O)NCC(N)=O` belongs 136 to 147 °C; to `C=CCNc1nc(NCCCCCCCCC)c2scc(C)c2n1`, 65 to 66 °C. On to `CCOC(=O)C(C#N)C(=O)c1nn(-c2ccccc2)c2c1CSc1ccccc1-2` (stereo not drawn), for which the melting point lay in the range of 176 to 178 °C. In turn, `Cc1cccc(C#N)c1[N+](=O)[O-]` had a melting point of 74.5 to 77 °C. To `CCC1NC(c2cc(Cl)nc(Cl)c2)=NC(=O)C1(CC)C(=O)OC` (stereo not drawn) belongs 202 to 203 °C. To `Cc1cc(C)cc(OCC(=O)c2ccc(C(C)C)cc2)c1` belongs 68 to 69 °C; to `CN(C1CCN(Cc2ccsc2)CC1)S(=O)(=O)c1ccc(Nc2nccc(Nc3ccc(F)cc3)n2)cc1`, 173 to 174 °C. To `CCCc1n[nH]cc1-c1nsc(Nc2ccccn2)n1` belongs 248 to 250 °C; to `S=c1[nH]c2cc(Cl)cc(OCCNCc3ccccc3)c2[nH]1`, over 250 °C. Regarding `Cc1nnc(Cl)c(-c2c(F)cccc2Cl)c1-c1ccc(Cl)nc1`, the melting point lay in the range of 166 to 167 °C. To `CCCCc1nc(C(O)C(C)C)c(C#N)n1Cc1ccc(-c2ccccc2-c2nnnn2C(c2ccccc2)(c2ccccc2)c2ccccc2)cc1` (stereo not drawn) belongs 127 to 128 °C; to `CCCOC(=O)c1cnc(S)n1C(c1ccccc1)c1ccccc1`, 133 °C.

`Cc1ccc(C(=O)N[C@H]2CC[C@H](CCN3CCN(c4nccc5c4OCC5)CC3)CC2)cn1`: the melting point is 204 °C.

`CCCCC(NC(=O)OCc1ccccc1)C(=O)Nc1n[nH]c(=S)s1` (stereo not drawn) displayed a melting point of 169 to 171 °C. To `CCC1(CC)CN(C(C)(C)C)C(=O)C(CC)(CC)N1OC(C)c1ccccc1` (stereo not drawn) belongs 85 to 90 °C; to `C=CCOC(=O)CCC(NC(=O)OCC1c2ccccc2-c2ccccc21)C(=O)OCc1ccccc1` (stereo not drawn), 66.2 to 67.1 °C; to `CCCCc1nc2ccccn2c(=O)c1-c1ccc(N[C@@H]2CCN(C)C2)cc1`, 64 to 66 °C. `Cc1cncn1-c1cc(NC(=O)OC(C)(C)C)cc(C(F)(F)F)c1` had a melting point of 169 to 171 °C. To `Clc1ccc(SC(Cn2ccnc2)C23CC4CC(CC(C4)C2)C3)cc1Cl` (stereo not drawn) belongs 179 to 181 °C; to `[N-]=[N+]=NCCCc1ccc(C(=O)O)s1`, 71 to 72 °C; to `CC(CN(C)C)Oc1ccc(-c2n[nH]c3ncccc23)cc1` (stereo not drawn), 130 to 132 °C.

`CN1CCCC1=NCCOS(=O)(=O)Oc1c[nH]c2ccccc12`: the melting point fell in the range of 154 to 158 °C. In turn, `COc1cc2nc(N)nc(-c3c(Br)cc(C)cc3Br)c2cc1OC` yielded a melting point of 235 to 237 °C.

`CC1=CC(c2ccc(Cl)cc2)C2=C(CCCC2=O)N1` (stereo not drawn) yielded a melting point of 184 to 187 °C.

As for `CC(=O)OC1CCC2(C)C(=CC=C3C2CCC2(C)C(C(C)CC#CC(C)(C)OC(C)=O)=CCC32)C1` (stereo not drawn), the melting point was 98 to 101 °C. The same measure for `O=C(O)COc1ccc(-c2ccc(=O)[nH]n2)cc1Cl`: 227 °C; for `Oc1ccc(O)c2[nH]c(-c3ccc(Cl)cc3)nc12`: over 300 °C; for `CN1C(=O)Nc2ccc(Cl)cc2C1(C#CC1(C)CC1)C(F)(F)F` (stereo not drawn): 206 to 208 °C.
